Our source for the IC50 values is patent publication US12522602B2, “Derivatives having 2,3-dihydro-1H-indene or 2,3-dihydrobenzofuran moiety or pharmaceutically acceptable salt thereof and pharmaceutical compositions comprising the same” (YUHAN CORPORATION, priority 2019, dated 2026).

One assay concerns GM1 production in Jurkat cells. The assay can be described thus: cells. Type of assay: cell-based.
Conditions: not given
In the case of `COc1cc2c(cc1-c1ccc(CC(C)C)cc1)CC(C)(C)C2NC(=O)O[C@@H]1CN2CCC1CC2` (stereo partly drawn) [Example 315, (S)-quinuclidin-3-yl (5-(4-isobutylphenyl)-6-methoxy-2,2-dimethyl-2,3-dihydro-1H-inden-1-yl)carbamate], the midpoint of inhibition, the IC50, lay at 11.3 nM.
Same read-out and setting: for `COc1cc2c(cc1-c1ccc(CC(C)C)cc1)CC(C)(C)C2NC(=O)O[C@@H]1CN2CCC1CC2` (stereo partly drawn) [Example 325, (S)-quinuclidin-3-yl (5-(4-isobutylphenyl)-6-methoxy-2,2-dimethyl-2,3-dihydro-1H-inden-1-yl)carbamate] the value was 2.1 nM.

Still in this assay, the particulars now being: Homo sapiens, Jurkat, 72 h.
Regarding `CCc1ccc(-c2cc3c(cc2OC)C(NC(=O)O[C@@H]2CN4CCC2CC4)C(C)(C)C3)cc1` (stereo partly drawn) [Example 312, (S)-quinuclidin-3-yl (5-(4-ethylphenyl)-6-methoxy-2,2-dimethyl-2,3-dihydro-1H-inden-1-yl)carbamate], it took 13.1 nM to reach half-maximal inhibition (IC50).
`CCCc1ccc(-c2cc3c(cc2OC)C(NC(=O)O[C@@H]2CN4CCC2CC4)C(C)(C)C3)cc1` (stereo partly drawn) [Example 313, (S)-quinuclidin-3-yl (6-methoxy-2,2-dimethyl-5-(4-propylphenyl)-2,3-dihydro-1H-inden-1-yl)carbamate] showed an IC50 of 7.3 nM.
The same measure, in the same setting: next, `COc1cc2c(cc1-c1ccc(C(C)C)cc1)CC(C)(C)C2NC(=O)O[C@@H]1CN2CCC1CC2` (stereo partly drawn) [Example 314, (S)-quinuclidin-3-yl (5-(4-isopropylphenyl)-6-methoxy-2,2-dimethyl-2,3-dihydro-1H-inden-1-yl)carbamate]: 7.7 nM; `COc1cc2c(cc1-c1ccc(C(C)(C)C)cc1)CC(C)(C)C2NC(=O)O[C@@H]1CN2CCC1CC2` (stereo partly drawn) [Example 316, (S)-quinuclidin-3-yl (5-(4-(tert-butyl)phenyl)-6-methoxy-2,2-dimethyl-2,3-dihydro-1H-inden-1-yl)carbamate]: 13.3 nM.
On the same count and under the same terms, for `COc1cc2c(cc1-c1ccc(C3CC3)cc1)CC(C)(C)C2NC(=O)O[C@@H]1CN2CCC1CC2` (stereo partly drawn) [Example 317, (S)-quinuclidin-3-yl (5-(4-cyclopropylphenyl)-6-methoxy-2,2-dimethyl-2,3-dihydro-1H-inden-1-yl)carbamate] the value was 10.3 nM.
Same read-out and setting: next, `CCOc1ccc(-c2cc3c(cc2OC)C(NC(=O)O[C@@H]2CN4CCC2CC4)C(C)(C)C3)cc1` (stereo partly drawn) [Example 318, (S)-quinuclidin-3-yl (5-(4-ethoxyphenyl)-6-methoxy-2,2-dimethyl-2,3-dihydro-1H-inden-1-yl)carbamate]: 20 nM; `CCCOc1ccc(-c2cc3c(cc2OC)C(NC(=O)O[C@@H]2CN4CCC2CC4)C(C)(C)C3)cc1` (stereo partly drawn) [Example 319, (S)-quinuclidin-3-yl (6-methoxy-2,2-dimethyl-5-(4-propoxyphenyl)-2,3-dihydro-1H-inden-1-yl)carbamate]: 7.7 nM; `COc1cc2c(cc1-c1ccc(OC(C)C)cc1)CC(C)(C)C2NC(=O)O[C@@H]1CN2CCC1CC2` (stereo partly drawn) [Example 320, (S)-quinuclidin-3-yl (5-(4-isopropoxyphenyl)-6-methoxy-2,2-dimethyl-2,3-dihydro-1H-inden-1-yl)carbamate]: 8.5 nM.
Consider `CCCOc1c(C)cc(-c2cc3c(cc2OC)C(NC(=O)O[C@@H]2CN4CCC2CC4)C(C)(C)C3)cc1C` (stereo partly drawn) [Example 321, (S)-quinuclidin-3-yl (5-(3,5-dimethyl-4-propoxyphenyl)-6-methoxy-2,2-dimethyl-2,3-dihydro-1H-inden-1-yl)carbamate], for which the IC50 was found to be 31.9 nM.
In the case of `COc1cc2c(cc1-c1ccc(OC(C)C)c(Cl)c1)CC(C)(C)C2NC(=O)O[C@@H]1CN2CCC1CC2` (stereo partly drawn) [Example 322, (S)-quinuclidin-3-yl (5-(3-chloro-4-isopropoxyphenyl)-6-methoxy-2,2-dimethyl-2,3-dihydro-1H-inden-1-yl)carbamate], half-maximal inhibition (IC50) required 24.4 nM.
Compound `COc1ccc(-c2cc3c(cc2OC)C(NC(=O)O[C@@H]2CN4CCC2CC4)C(C)(C)C3)c(F)c1` (stereo partly drawn) [Example 323, (S)-quinuclidin-3-yl (5-(2-fluoro-4-methoxyphenyl)-6-methoxy-2,2-dimethyl-2,3-dihydro-1H-inden-1-yl)carbamate] registered a concentration for half-maximal inhibition (IC50) of 78.9 nM.
The same measure, in the same setting: next, `CCCCOc1ccc(-c2cc3c(cc2OC)C(NC(=O)O[C@@H]2CN4CCC2CC4)C(C)(C)C3)cc1` (stereo partly drawn) [Example 324, (S)-quinuclidin-3-yl (5-(4-butoxyphenyl)-6-methoxy-2,2-dimethyl-2,3-dihydro-1H-inden-1-yl)carbamate]: 5.8 nM; `COc1cc2c(cc1-c1ccc(OCC3CC3)nc1)CC(C)(C)C2NC(=O)O[C@@H]1CN2CCC1CC2` (stereo partly drawn) [Example 326, (S)-quinuclidin-3-yl (5-(6-(cyclopropylmethoxy)pyridin-3-yl)-6-methoxy-2,2-dimethyl-2,3-dihydro-1H-inden-1-yl)carbamate]: 10.8 nM; `COc1ccc(Cl)cc1-c1cc2c(cc1OC)C(NC(=O)O[C@@H]1CN3CCC1CC3)C(C)(C)C2` (stereo partly drawn) [Example 327, (S)-quinuclidin-3-yl (5-(5-chloro-2-methoxyphenyl)-6-methoxy-2,2-dimethyl-2,3-dihydro-1H-inden-1-yl)carbamate]: 16.8 nM.
On to `CCCCc1ccc(-c2cc3c(cc2OC)C(NC(=O)O[C@@H]2CN4CCC2CC4)C(C)(C)C3)cc1` (stereo partly drawn) [Example 328, (S)-quinuclidin-3-yl (5-(4-butylphenyl)-6-methoxy-2,2-dimethyl-2,3-dihydro-1H-inden-1-yl)carbamate], for which the IC50 was determined as 11.4 nM.
Still for that read-out and setting: next, `COc1cc2c(cc1-c1cc(C)c(OC)c(C)c1)CC(C)(C)C2NC(=O)O[C@@H]1CN2CCC1CC2` (stereo partly drawn) [Example 329, (S)-quinuclidin-3-yl (6-methoxy-5-(4-methoxy-3,5-dimethylphenyl)-2,2-dimethyl-2,3-dihydro-1H-inden-1-yl)carbamate]: 65.8 nM.
On the same count and under the same terms, for `CCOc1c(C)cc(-c2cc3c(cc2OC)C(NC(=O)O[C@@H]2CN4CCC2CC4)C(C)(C)C3)cc1C` (stereo partly drawn) [Example 330, (S)-quinuclidin-3-yl (5-(4-ethoxy-3,5-dimethylphenyl)-6-methoxy-2,2-dimethyl-2,3-dihydro-1H-inden-1-yl)carbamate] the value was 52.7 nM; for `CCCCOc1c(C)cc(-c2cc3c(cc2OC)C(NC(=O)O[C@@H]2CN4CCC2CC4)C(C)(C)C3)cc1C` (stereo partly drawn) [Example 331, (S)-quinuclidin-3-yl (5-(4-butoxy-3,5-dimethylphenyl)-6-methoxy-2,2-dimethyl-2,3-dihydro-1H-inden-1-yl)carbamate], 22.6 nM; for `COc1cc(-c2cc3c(cc2OC)C(NC(=O)O[C@@H]2CN4CCC2CC4)C(C)(C)C3)ccn1` (stereo partly drawn) [Example 332, (S)-quinuclidin-3-yl (6-methoxy-5-(2-methoxypyridin-4-yl)-2,2-dimethyl-2,3-dihydro-1H-inden-1-yl)carbamate], 158 nM.
The same measure, in the same setting: for `COc1cc2c(cc1-c1cccc(F)c1)CC(C)(C)C2NC(=O)O[C@@H]1CN2CCC1CC2` (stereo partly drawn) [Example 333, (S)-quinuclidin-3-yl (5-(3-fluorophenyl)-6-methoxy-2,2-dimethyl-2,3-dihydro-1H-inden-1-yl)carbamate] the value was 45 nM; for `CCc1cccc(-c2cc3c(cc2OC)C(NC(=O)O[C@@H]2CN4CCC2CC4)C(C)(C)C3)c1` (stereo partly drawn) [Example 334, (S)-quinuclidin-3-yl (5-(3-ethylphenyl)-6-methoxy-2,2-dimethyl-2,3-dihydro-1H-inden-1-yl)carbamate], 20.9 nM; for `COc1cc2c(cc1-c1cccc(CC(C)C)c1)CC(C)(C)C2NC(=O)O[C@@H]1CN2CCC1CC2` (stereo partly drawn) [Example 335, (S)-quinuclidin-3-yl (5-(3-isobutylphenyl)-6-methoxy-2,2-dimethyl-2,3-dihydro-1H-inden-1-yl)carbamate], 50.4 nM.
`COc1cc2c(cc1-c1cccc(C(C)C)c1)CC(C)(C)C2NC(=O)O[C@@H]1CN2CCC1CC2` (stereo partly drawn) [Example 336, (S)-quinuclidin-3-yl (5-(3-isopropylphenyl)-6-methoxy-2,2-dimethyl-2,3-dihydro-1H-inden-1-yl)carbamate]: the IC50 stood at 48 nM.
Same read-out and setting: next, `COc1cc2c(cc1-c1cccc(C(C)(C)C)c1)CC(C)(C)C2NC(=O)O[C@@H]1CN2CCC1CC2` (stereo partly drawn) [Example 337, (S)-quinuclidin-3-yl (5-(3-(tert-butyl)phenyl)-6-methoxy-2,2-dimethyl-2,3-dihydro-1H-inden-1-yl)carbamate]: 65 nM; `COc1cccc(-c2cc3c(cc2OC)C(NC(=O)O[C@@H]2CN4CCC2CC4)C(C)(C)C3)c1` (stereo partly drawn) [Example 338, (S)-quinuclidin-3-yl (6-methoxy-5-(3-methoxyphenyl)-2,2-dimethyl-2,3-dihydro-1H-inden-1-yl)carbamate]: 53.7 nM; `CCOc1cccc(-c2cc3c(cc2OC)C(NC(=O)O[C@@H]2CN4CCC2CC4)C(C)(C)C3)c1` (stereo partly drawn) [Example 339, (S)-quinuclidin-3-yl (5-(3-ethoxyphenyl)-6-methoxy-2,2-dimethyl-2,3-dihydro-1H-inden-1-yl)carbamate]: 62.5 nM.
On to `CCCOc1cccc(-c2cc3c(cc2OC)C(NC(=O)O[C@@H]2CN4CCC2CC4)C(C)(C)C3)c1` (stereo partly drawn) [Example 340, (S)-quinuclidin-3-yl (6-methoxy-2,2-dimethyl-5-(3-propoxyphenyl)-2,3-dihydro-1H-inden-1-yl)carbamate], for which the IC50 is 43.8 nM.
Same read-out and setting: for `COc1cc2c(cc1-c1cccc(OC(C)C)c1)CC(C)(C)C2NC(=O)O[C@@H]1CN2CCC1CC2` (stereo partly drawn) [Example 341, (S)-quinuclidin-3-yl (5-(3-isopropoxyphenyl)-6-methoxy-2,2-dimethyl-2,3-dihydro-1H-inden-1-yl)carbamate] the value was 61.9 nM; for `CCCCOc1cccc(-c2cc3c(cc2OC)C(NC(=O)O[C@@H]2CN4CCC2CC4)C(C)(C)C3)c1` (stereo partly drawn) [Example 342, (S)-quinuclidin-3-yl (5-(3-butoxyphenyl)-6-methoxy-2,2-dimethyl-2,3-dihydro-1H-inden-1-yl)carbamate], 21.6 nM.
Consider `COc1cc2c(cc1-c1cccc(OCC(C)C)c1)CC(C)(C)C2NC(=O)O[C@@H]1CN2CCC1CC2` (stereo partly drawn) [Example 343, (S)-quinuclidin-3-yl (5-(3-isobutoxyphenyl)-6-methoxy-2,2-dimethyl-2,3-dihydro-1H-inden-1-yl)carbamate], for which the IC50 amounted to 45.7 nM.
